According to PubChem BioAssay (NCI):
Where “and” joins values, the source holds several entries; their conditions need not be identical. Equal entries are not always repeated.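 Assay format: 96-well plates, 48-hour exposure. GI50 marks 50% less growth. TGI: total growth inhibition.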

Experiments:
Test in all cases: NCI tumour cell line growth inhibition, 48 h
ACHN renal = test system: ACHN renal
M14 melanoma = test system: M14 melanoma
NCI-H226 lung = test system: NCI-H226 lung
SK-MEL-5 melanoma = test system: SK-MEL-5 melanoma
OVCAR-3 ovarian = test system: OVCAR-3 ovarian
DLD-1 colon = test system: DLD-1 colon
HL-60(TB) leukemia = test system: HL-60(TB) leukemia
SN12C renal = test system: SN12C renal
NCI/ADR-RES ovarian = test system: NCI/ADR-RES ovarian
DMS 114 small cell lung = test system: DMS 114 small cell lung

Structure (SMILES): CC1OC(O[C@@H]2C=C3CC[C@@H]4[C@H](CC[C@]5(C)[C@@H](c6ccc(=O)oc6)CC[C@]45O)[C@@]3(C)CC2)C(O)C(OC2OC(CO)C(O)C(O)C2O)C1O (some centres not stated)
- TGI (ACHN renal): 0.00301 µM
- GI50 (M14 melanoma): 0.00096 µM
- TGI (M14 melanoma): 0.0148 µM
- GI50 (NCI-H226 lung): 0.0101 µM
- TGI (NCI-H226 lung): 0.0549 µM and 0.0732 µM
- GI50 (SK-MEL-5 melanoma): 0.00014 µM
- TGI (SK-MEL-5 melanoma): 0.0175 µM
- GI50 (OVCAR-3 ovarian): 0.000162 µM
- TGI (OVCAR-3 ovarian): 0.0253 µM
- TGI (DLD-1 colon): 0.0253 µM

Structure (SMILES): COc1ccc([I+]c2ccc(OC)cc2)cc1
- TGI (ACHN renal): > 100 µM
- GI50 (HL-60(TB) leukemia): 6.4 µM
- TGI (HL-60(TB) leukemia): > 100 µM
- GI50 (SN12C renal): 29.3 µM
- TGI (SN12C renal): > 100 µM
- GI50 (M14 melanoma): 13.4 µM
- TGI (M14 melanoma): > 100 µM
- GI50 (NCI-H226 lung): 14.4 µM
- TGI (NCI-H226 lung): > 100 µM
- GI50 (SK-MEL-5 melanoma): 1.8 µM
- TGI (SK-MEL-5 melanoma): 20.7 µM and 6.76 µM
- GI50 (OVCAR-3 ovarian): 11.8 µM
- TGI (OVCAR-3 ovarian): > 100 µM
- TGI (NCI/ADR-RES ovarian): > 100 µM

Structure (SMILES): COC(=O)C12Oc3ccc(-c4ccc5c(c4O)C(O)=C4C(=O)CC(C)C(O)C4(C(=O)OC)O5)c(O)c3C(O)=C1C(=O)CC(C)C2O (configuration not stated)
- TGI (ACHN renal): > 32.1 µM
- TGI (HL-60(TB) leukemia): 0.319 µM
- TGI (SN12C renal): > 100 µM
- TGI (M14 melanoma): 0.89 µM
- TGI (NCI-H226 lung): 4.36 µM
- TGI (SK-MEL-5 melanoma): 0.147 µM
- TGI (NCI/ADR-RES ovarian): > 100 µM

Structure (SMILES): O=C1C(=C([O-])c2ccccc2)C(=O)c2ccccc21.O=C1C(=C([O-])c2ccccc2)C(=O)c2ccccc21.[Ni+2]
- GI50 (SN12C renal): 51.3 µM
- TGI (SN12C renal): > 100 µM
- GI50 (NCI-H226 lung): 4.68 µM
- TGI (NCI-H226 lung): 63.5 µM
- GI50 (SK-MEL-5 melanoma): 18.2 µM
- TGI (SK-MEL-5 melanoma): 54.9 µM
- GI50 (DLD-1 colon): 40.2 µM
- TGI (DLD-1 colon): > 100 µM

Structure (SMILES): COc1cc2c[n+](C)c3c4cc(OC)c(OCc5ccccc5)cc4c(OCc4ccccc4)cc3c2cc1OC
- TGI (ACHN renal): > 100 µM
- TGI (SN12C renal): 33.2 µM
- TGI (M14 melanoma): 21.6 µM
- TGI (NCI-H226 lung): 43.9 µM
- TGI (SK-MEL-5 melanoma): 6.77 µM
- TGI (OVCAR-3 ovarian): 10.8 µM
- TGI (NCI/ADR-RES ovarian): > 100 µM

Structure (SMILES): O=S(O)c1cc(Cl)c(O)c(Cl)c1
- TGI (ACHN renal): > 100 µM
- TGI (HL-60(TB) leukemia): > 100 µM
- TGI (SN12C renal): > 100 µM
- TGI (M14 melanoma): > 100 µM
- TGI (DMS 114 small cell lung): > 100 µM
- TGI (OVCAR-3 ovarian): > 100 µM
- TGI (DLD-1 colon): > 100 µM

Structure (SMILES): CC(=O)OCC1OC(N=[N+]=[N-])C(OC(C)=O)C(OC(C)=O)C1OC1OC(COC(C)=O)C(OC(C)=O)C(OC(C)=O)C1OC(C)=O (configuration not stated)
- TGI (ACHN renal): > 100 µM
- TGI (HL-60(TB) leukemia): > 100 µM
- TGI (SN12C renal): > 100 µM
- TGI (M14 melanoma): > 100 µM
- TGI (DMS 114 small cell lung): > 100 µM
- TGI (SK-MEL-5 melanoma): > 100 µM
- TGI (OVCAR-3 ovarian): > 100 µM

Structure (SMILES): C=C1CCOC2(C(O)C(C)(O)CO)NC(=O)C1(O)NC2=O (configuration not stated)
- TGI (ACHN renal): > 100 µM
- TGI (HL-60(TB) leukemia): > 100 µM
- TGI (SN12C renal): > 100 µM
- TGI (M14 melanoma): > 100 µM
- TGI (NCI-H226 lung): > 100 µM
- TGI (SK-MEL-5 melanoma): > 100 µM
- TGI (OVCAR-3 ovarian): > 100 µM
- TGI (NCI/ADR-RES ovarian): > 100 µM

Structure (SMILES): COC(=O)c1c(O)ccc2c1c1c(n2Cc2cccc(C)c2)C(=O)c2ccccc2C1
- TGI (ACHN renal): > 75 µM
- TGI (HL-60(TB) leukemia): > 75 µM
- TGI (SN12C renal): 27.6 µM
- TGI (M14 melanoma): 47.1 µM
- TGI (NCI-H226 lung): > 75 µM
- TGI (SK-MEL-5 melanoma): > 75 µM
- TGI (OVCAR-3 ovarian): > 75 µM
- TGI (NCI/ADR-RES ovarian): > 75 µM

Structure (SMILES): C/C(=N\NC(N)=S)c1nc2ncccc2[nH]1
- TGI (ACHN renal): > 100 µM
- TGI (HL-60(TB) leukemia): > 79.1 µM
- TGI (SN12C renal): > 100 µM
- TGI (M14 melanoma): > 100 µM
- TGI (NCI-H226 lung): > 91.4 µM
- TGI (SK-MEL-5 melanoma): > 100 µM
- TGI (OVCAR-3 ovarian): > 100 µM
- TGI (NCI/ADR-RES ovarian): > 100 µM

Structure (SMILES): COc1cc(O)c(Cc2ccccc2O)c(O)c1C(=O)CCc1ccccc1
- TGI (HL-60(TB) leukemia): 20 µM
- TGI (SN12C renal): 17 µM
- TGI (NCI-H226 lung): 32 µM
- TGI (DMS 114 small cell lung): 14.5 µM
- TGI (SK-MEL-5 melanoma): 9.36 µM
- TGI (OVCAR-3 ovarian): 16.1 µM
- TGI (DLD-1 colon): 30.7 µM
- TGI (NCI/ADR-RES ovarian): 18.9 µM

Structure (SMILES): Cc1cc(O)c2c(c1)C(C1c3cccc(O)c3C(=O)c3c(O)cc(C)cc31)c1cccc(O)c1C2=O (configuration not stated)
- TGI (ACHN renal): 3.56 µM
- TGI (HL-60(TB) leukemia): 6.72 µM
- TGI (SN12C renal): 3.23 µM
- TGI (M14 melanoma): 7.49 µM
- TGI (NCI-H226 lung): 2.24 µM
- TGI (SK-MEL-5 melanoma): 0.557 µM
- TGI (OVCAR-3 ovarian): 0.739 µM
- TGI (NCI/ADR-RES ovarian): 9.2 µM

Structure (SMILES): Cn1c(=O)c2[nH]c(SC/C(=N/O)c3ccc(Br)cc3)nc2n(C)c1=O
- GI50 (HL-60(TB) leukemia): 68.6 µM
- TGI (HL-60(TB) leukemia): > 100 µM
- GI50 (M14 melanoma): 45.5 µM
- TGI (M14 melanoma): > 100 µM

Structure (SMILES): COc1ccc2c3/c(=C\c4ccc(N(C)C)cc4)c4ccccc4n3[n+](C)c2c1
- GI50 (ACHN renal): 0.404 µM
- GI50 (HL-60(TB) leukemia): 0.051 µM
- GI50 (NCI-H226 lung): 0.244 µM
- TGI (NCI-H226 lung): 1.68 µM
- GI50 (OVCAR-3 ovarian): 0.0358 µM
- TGI (OVCAR-3 ovarian): 0.369 µM
- GI50 (NCI/ADR-RES ovarian): 4.31 µM
- TGI (NCI/ADR-RES ovarian): > 55.8 µM
